Measured values from PubChem BioAssay AID330 (DTP/NCI, 2004).
Inconclusive results and toxic doses are left out. How the source made its calls: active means survival T/C of 150% or more; inactive means T/C below 125% in these data.

Tested on: P388 leukemia ip, CD2F1 mice, survival T/C
Experiment: NCI In Vivo Anticancer Drug Screen. Data for tumor model P388 Leukemia (intraperitoneal) in CD2F1 (CDF1) mice
Settings: endpoint: median survival time, higher = longer survival
In short: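 Mice carrying the transplanted tumor received test compound or vehicle. Survival was recorded in each group, and the value is the treated-group measurement divided by that of the vehicle-treated control group.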

[1] = dose: 100.0 mg/kg/injection, schedule: Q01DX001 (ip), vehicle: saline with Tween-80
[2] = dose: 200.0 mg/kg/injection, schedule: Q01DX001 (ip), vehicle: saline with Tween-80
[3] = dose: 400.0 mg/kg/injection, schedule: Q01DX001 (ip), vehicle: saline with Tween-80
[4] = dose: 25.0 mg/kg/injection, schedule: Q04DX003 (ip), vehicle: Klucel (hydroxypropylcellulose) (HPC)
[5] = dose: 50.0 mg/kg/injection, schedule: Q04DX003 (ip), vehicle: Klucel (hydroxypropylcellulose) (HPC)
[6] = dose: 50.0 mg/kg/injection, schedule: Q01DX009 (ip), vehicle: saline with Tween-80
[7] = dose: 100.0 mg/kg/injection, schedule: Q01DX009 (ip), vehicle: saline with Tween-80
[8] = dose: 200.0 mg/kg/injection, schedule: Q01DX009 (ip), vehicle: saline with Tween-80
[9] = dose: 60.0 mg/kg/injection, schedule: Q01DX005 (ip), vehicle: Klucel (hydroxypropylcellulose) (HPC)
[10] = dose: 120.0 mg/kg/injection, schedule: Q01DX005 (ip), vehicle: Klucel (hydroxypropylcellulose) (HPC)
[11] = dose: 240.0 mg/kg/injection, schedule: Q01DX005 (ip), vehicle: Klucel (hydroxypropylcellulose) (HPC)

Measured: T/C

c1ccc(C(Sc2c[nH]c3ccccc23)(c2ccccc2)c2ccccc2)cc1 (tested in a mixture with another compound)
inactive: [1] 100 % of control | [2] 90 % of control | [3] 92 % of control

COc1cc2c(c(O)c1OC)-c1ccc(OC)c(=O)cc1[C@@H](NC(C)=O)CC2
inactive: dose: 2.5 mg/kg/injection, schedule: Q01DX009 (ip), vehicle: Klucel (hydroxypropylcellulose) (HPC) 102 % of control | dose: 5.0 mg/kg/injection, schedule: Q01DX009 (ip), vehicle: Klucel (hydroxypropylcellulose) (HPC) 93 % of control | dose: 10.0 mg/kg/injection, schedule: Q01DX009 (ip), vehicle: Klucel (hydroxypropylcellulose) (HPC) 96 % of control | dose: 20.0 mg/kg/injection, schedule: Q01DX009 (ip), vehicle: Klucel (hydroxypropylcellulose) (HPC) 93 % of control | dose: 28.0 mg/kg/injection, schedule: Q01DX009 (ip), vehicle: Klucel (hydroxypropylcellulose) (HPC) 86 % of control | dose: 40.0 mg/kg/injection, schedule: Q01DX009 (ip), vehicle: Klucel (hydroxypropylcellulose) (HPC) 102 % of control | dose: 56.0 mg/kg/injection, schedule: Q01DX009 (ip), vehicle: Klucel (hydroxypropylcellulose) (HPC) 96 % of control

COc1ccc2nc3ccccc3c(NCCNCCO)c2c1
inactive: dose: 1.25 mg/kg/injection, schedule: Q01DX009 (ip), vehicle: saline 105 % of control | dose: 2.5 mg/kg/injection, schedule: Q01DX009 (ip), vehicle: saline 105 % of control | dose: 5.0 mg/kg/injection, schedule: Q01DX009 (ip), vehicle: saline 120 % of control

CCc1nc(N)nc(N)c1-c1ccc(N2CCOCC2)c(N=[N+]=[N-])c1
inactive: dose: 6.25 mg/kg/injection, schedule: Q01DX005 (ip), vehicle: Klucel (hydroxypropylcellulose) (HPC) 101 % of control | dose: 12.5 mg/kg/injection, schedule: Q01DX005 (ip), vehicle: Klucel (hydroxypropylcellulose) (HPC) 100 % of control | dose: 25.0 mg/kg/injection, schedule: Q01DX005 (ip), vehicle: Klucel (hydroxypropylcellulose) (HPC) 97 % of control

COc1cccc2c1C(=O)c1c(O)c3c(c(O)c1C2=O)CC(O)(/C(C)=N/NC(=O)CC(=O)N/N=C(\C)C1(O)Cc2c(O)c4c(c(O)c2C(OC2CC(N)C(O)C(C)O2)C1)C(=O)c1c(OC)cccc1C4=O)CC3OC1CC(N)C(O)C(C)O1 (configuration not stated)
inactive: dose: 3.13 mg/kg/injection, schedule: Q04DX003 (ip), vehicle: water 101 % of control | dose: 6.25 mg/kg/injection, schedule: Q04DX003 (ip), vehicle: water 110 % of control | dose: 12.5 mg/kg/injection, schedule: Q04DX003 (ip), vehicle: water 112 % of control
active: dose: 3.13 mg/kg/injection, schedule: Q01DX009 (ip), vehicle: water 153 % of control | dose: 6.25 mg/kg/injection, schedule: Q01DX009 (ip), vehicle: water 169 % of control

O=c1n(-c2ccccc2)c(=O)n2n1C1C=CC2C2C3OC3C21 (configuration not stated)
inactive: dose: 12.5 mg/kg/injection, schedule: Q04DX003 (ip), vehicle: Klucel (hydroxypropylcellulose) (HPC) 100 % of control | [4] 101 % of control | [5] 108 % of control

O=C1NC(=O)C(SSC2C(=O)NC(=O)NC2=O)C(=O)N1
inactive: dose: 50.0 mg/kg/injection, schedule: Q01DX009 (ip), vehicle: Klucel (hydroxypropylcellulose) (HPC) 109 % of control | dose: 100.0 mg/kg/injection, schedule: Q01DX009 (ip), vehicle: Klucel (hydroxypropylcellulose) (HPC) 95 % of control | dose: 200.0 mg/kg/injection, schedule: Q01DX009 (ip), vehicle: Klucel (hydroxypropylcellulose) (HPC) 94 % of control

CCN(CC)CCN1c2ccccc2Sc2c1ccc1ccccc21
inactive: dose: 50.0 mg/kg/injection, schedule: Q01DX005 (ip), vehicle: saline + Tween-80 + alcohol 112 % of control | dose: 100.0 mg/kg/injection, schedule: Q01DX005 (ip), vehicle: saline + Tween-80 + alcohol 107 % of control | dose: 200.0 mg/kg/injection, schedule: Q01DX005 (ip), vehicle: saline + Tween-80 + alcohol 107 % of control

CCOC(=O)Nc1cc2c(c(N)n1)N=C(c1ccc(C(F)(F)F)cc1)CN2
inactive: dose: 2.5 mg/kg/injection, schedule: Q01DX009 (ip), vehicle: saline with Tween-80 109 % of control | dose: 5.0 mg/kg/injection, schedule: Q01DX009 (ip), vehicle: saline with Tween-80 111 % of control | dose: 7.5 mg/kg/injection, schedule: Q04DX003 (ip), vehicle: saline with Tween-80 101 % of control | dose: 10.0 mg/kg/injection, schedule: Q01DX009 (ip), vehicle: saline with Tween-80 111 % of control | dose: 12.5 mg/kg/injection, schedule: Q01DX009 (ip), vehicle: saline with Tween-80 86 % of control | dose: 15.0 mg/kg/injection, schedule: Q04DX003 (ip), vehicle: saline with Tween-80 104 % of control | dose: 22.5 mg/kg/injection, schedule: Q01DX001 (ip), vehicle: saline with Tween-80 101 % of control | dose: 25.0 mg/kg/injection, schedule: Q01DX009 (ip), vehicle: saline with Tween-80 111 % of control | dose: 30.0 mg/kg/injection, schedule: Q04DX003 (ip), vehicle: saline with Tween-80 101 % of control | dose: 45.0 mg/kg/injection, schedule: Q01DX001 (ip), vehicle: saline with Tween-80 94 % of control | [6] 117 % of control | dose: 90.0 mg/kg/injection, schedule: Q01DX001 (ip), vehicle: saline with Tween-80 101 % of control

CC1=C(C#N)C2(N)OC1(C)C1C(=O)C=CC(=O)C12 (configuration not stated)
inactive: dose: 50.0 mg/kg/injection, schedule: Q01DX005 (ip), vehicle: saline with Tween-80 110 % of control | dose: 100.0 mg/kg/injection, schedule: Q01DX005 (ip), vehicle: saline with Tween-80 107 % of control | dose: 200.0 mg/kg/injection, schedule: Q01DX005 (ip), vehicle: saline with Tween-80 108 % of control

CC1=C(c2cc3ccccc3c3ccccc23)CCCC1
inactive: [7] 104 % of control | [8] 98 % of control | dose: 400.0 mg/kg/injection, schedule: Q01DX009 (ip), vehicle: saline with Tween-80 100 % of control

CCOc1cc(/C=N\Nc2nncn2N)c(C)cc1N(CCCl)CCCl
inactive: dose: 50.0 mg/kg/injection, schedule: Q04DX003 (ip), vehicle: saline sonified 116 % of control

CC1=C2C3OC(=O)C(C)C3CCC2(C)C=C(Br)C1=O (configuration not stated)
inactive: [9] 106 % of control | dose: 100.0 mg/kg/injection, schedule: Q04DX002 (ip), vehicle: saline with Tween-80 101 % of control | [10] 98 % of control | dose: 200.0 mg/kg/injection, schedule: Q04DX002 (ip), vehicle: saline with Tween-80 97 % of control | [11] 104 % of control | dose: 400.0 mg/kg/injection, schedule: Q04DX002 (ip), vehicle: saline with Tween-80 97 % of control

CCOC(=O)/C(C#N)=C\c1c(OC(C)=O)cn2c(C)cccc12
inactive: [1] 104 % of control | [2] 98 % of control | [3] 98 % of control

O=c1ccn2ccccc2n1
inactive: dose: 50.0 mg/kg/injection, schedule: Q01DX009 (ip), vehicle: saline 95 % of control | dose: 50.0 mg/kg/injection, schedule: Q04DX003 (ip), vehicle: saline 91 % of control | dose: 100.0 mg/kg/injection, schedule: Q01DX009 (ip), vehicle: saline 86 % of control | dose: 100.0 mg/kg/injection, schedule: Q04DX003 (ip), vehicle: saline 100 % of control | dose: 200.0 mg/kg/injection, schedule: Q01DX009 (ip), vehicle: saline 95 % of control | dose: 200.0 mg/kg/injection, schedule: Q04DX003 (ip), vehicle: saline 91 % of control

Oc1ccc(N=Nc2ccc3ccc4cccc5ccc2c3c45)c2cccnc12
inactive: [4] 101 % of control | [5] 101 % of control | dose: 100.0 mg/kg/injection, schedule: Q04DX003 (ip), vehicle: Klucel (hydroxypropylcellulose) (HPC) 100 % of control

C=C(C(N)=O)C(N)C(=O)O (configuration not stated)
inactive: dose: 60.0 mg/kg/injection, schedule: Q01DX005 (ip), vehicle: saline with Tween-80 120 % of control

COc1cc(C(=O)n2ncc(C(C)=O)c2C)cc(OC)c1OC
inactive: [6] 103 % of control | [7] 106 % of control | [8] 116 % of control

COc1cc(/C=C2/C(=O)N(c3ccccc3)N=C2C)cc(OC)c1OC
inactive: [9] 108 % of control | [10] 104 % of control | [11] 105 % of control

CCCCCCCCCC(C)CCCCC (configuration not stated)
inactive: dose: 25.0 mg/kg/injection, schedule: Q01DX001 (ip), vehicle: saline with Tween-80 90 % of control | dose: 50.0 mg/kg/injection, schedule: Q01DX001 (ip), vehicle: saline with Tween-80 100 % of control | [1] 100 % of control
